# Reference: publication PMC10141516 (Pharmaceutics, 2023)
# What was measured:
# [1] = Equilibrium solubility test (HPLC); settings: for solubility thermodynamic at 12 h / solubility thermodynamic at 24 h: thermodynamic from solid
# Description: The column used was an Agilent C18 column (5.0 μm, 4.6 × 150 mm). The mobile phase and diluted solution of the content and dissolution studies analyses were prepared with 0.5% triethylamine buffer (v/v, pH 6.8 adjusted with 85% phosphoric acid) and acetonitrile at a ratio of 7:3 (v/v). The mobile phase was filtered through a 0.45-μm polypropylene membrane filter and degassed via sonication. The wavelength, flow rate, and injection volume were set to 205 nm, 1.5 mL/min, and 20 μL, respectively. In the case of the content and dissolution studies, the mobile phase was constantly flowed for 18 min via an isocratic elution method and analyzed.
# The equilibrium solubility test was used to calculate the input amount through the apparent solubility test result, and an excess of the API was placed in each beaker and stirred at 400 rpm. At 0, 12, and 24 h immediately after the overdose, 2 mL samples were taken and filtered through a 0.45-μm regenerated cellulose syringe filter. The supernatant of the filtered solution was taken and diluted with a content analysis diluted solution. […] A calibration test was performed, and the sample was diluted with a diluted solution and prepared at a concentration of 0.05–1 mg/mL.
# [2] = cited from earlier work
# [3] = Apparent solubility test (USP <1236>); settings: for solubility: 20 °C, thermodynamic from solid
# Description: Then, 200 μL of each solvent was added and stirred at 400 rpm. The temperature of the sample was maintained at 20 ± 2 °C. After shaking for 30 s every 5 min, 200 μL of each solvent was added until no particles of the API were visible. The apparent solubility of the two main components was estimated through the point at which all of the API dissolved and became clear.
# [4] = oral; cited from earlier work
# [5] = Stability study of the APIs in pH buffers (total impurity by HPLC); type: physicochemical
# Description: The column used was the Gemini C18 column (5.0 μm, 250 mm). Mobile phase A of the impurity study was prepared with KH2PO4 buffer (v/v, solution adjusted to pH 6.0 with 1 M KOH): acetonitrile: methanol = 85: 10: 5 (v/v/v), and mobile phase B was prepared with 90% acetonitrile. The mobile phase was filtered through a 0.4 μm polypropylene membrane filter and degassed via sonication. The diluted solution was prepared with KH2PO4 buffer (v/v, solution adjusted to pH 6.0 with 1 M KOH) and acetonitrile at a ratio of 7:3 (v/v). The wavelength, flow rate, and injection volume were set to 220 nm, 1.0 mL/min, and 20 μL, respectively. The column and sample thermostats were set to 35 °C and 5 °C, respectively. In the case of the impurity study, the analysis was performed by changing the composition of the mobile phase for 80 min using a gradient elution method for 80 min.
# […] […] We performed a calibration test, and the sample was diluted with a diluted solution and prepared at a concentration of 0.05–1 mg/mL.
# [6] = buffer solution, pH 3, aqueous buffer
# [7] = buffer solution, pH 4, aqueous buffer
# [8] = buffer solution, pH 5, aqueous buffer
# [9] = buffer solution, pH 6, aqueous buffer
# [10] = buffer solution, pH 6.8, aqueous buffer
# [11] = buffer solution, pH 7, aqueous buffer
# [12] = buffer solution, pH 8, aqueous buffer
# [13] = buffer solution, pH 9, aqueous buffer
# [14] = buffer solution, pH 10, aqueous buffer
# [15] = buffer solution, pH 11, aqueous buffer
# [16] = pH 1.2 buffer solution, pH 1.2, aqueous buffer
# [17] = pH 2.0 buffer solution, pH 2, aqueous buffer
# [18] = pH 12.0 buffer solution, pH 12, aqueous buffer
structure (smiles),measurement,setting,value
"CCOc1ccc(Cc2cc([C@@H]3O[C@H](CO)[C@@H](O)[C@H](O)[C@H]3O)ccc2Cl)cc1 [Dapagliflozin, (1S)-1,5-Anhydro-1-C-[4-chloro-3-[(4-ethoxyphenyl)methyl]phenyl]-D-glucitol (S)-propane-1,2-diol (1:1) monohydrate]",amount dissolved in dissolution medium,[1]; 900 mL of dissolution medium,more than 0.33 mg per 1 mL
same,solubility thermodynamic at 12 h,[1]; [6],0.4 mg/mL
same,solubility thermodynamic at 24 h,[1]; [6],0.4 mg/mL
same,solubility thermodynamic at 12 h,[1]; [7],0.37 mg/mL
same,solubility thermodynamic at 24 h,[1]; [7],0.37 mg/mL
same,solubility thermodynamic at 12 h,[1]; [8],0.37 mg/mL
same,solubility thermodynamic at 24 h,[1]; [8],0.37 mg/mL
same,solubility thermodynamic at 12 h,[1]; [9],0.32 mg/mL
same,solubility thermodynamic at 24 h,[1]; [9],0.32 mg/mL
same,solubility thermodynamic at 12 h,[1]; [10],0.33 mg/mL
same,solubility thermodynamic at 24 h,[1]; [10],0.33 mg/mL
same,solubility thermodynamic at 12 h,[1]; [11],0.32 mg/mL
same,solubility thermodynamic at 24 h,[1]; [11],0.32 mg/mL
same,solubility thermodynamic at 12 h,[1]; [12],0.35 mg/mL
same,solubility thermodynamic at 24 h,[1]; [12],0.35 mg/mL
same,solubility thermodynamic at 12 h,[1]; [13],0.34 mg/mL
same,solubility thermodynamic at 24 h,[1]; [13],0.34 mg/mL
same,solubility thermodynamic at 12 h,[1]; [14],0.34 mg/mL
same,solubility thermodynamic at 24 h,[1]; [14],0.34 mg/mL
same,solubility thermodynamic at 12 h,[1]; [15],0.21 mg/mL
same,solubility thermodynamic at 12 h,"[1]; deionized water, water",0.29 mg/mL
same,solubility thermodynamic at 24 h,"[1]; deionized water, water",0.29 mg/mL
same,solubility thermodynamic at 12 h,[1]; [16],0.34 mg/mL
same,solubility thermodynamic at 24 h,[1]; [16],0.34 mg/mL
same,solubility thermodynamic at 12 h,[1]; [17],0.35 mg/mL
same,solubility thermodynamic at 24 h,[1]; [17],0.35 mg/mL
same,solubility thermodynamic at 24 h,"[1]; pH 11.0 buffer solution, pH 11, aqueous buffer",0.21 mg/mL
same,solubility thermodynamic at 12 h,[1]; [18],0.24 mg/mL
same,solubility thermodynamic at 24 h,[1]; [18],0.24 mg/mL
same,BCS,[2],Class 3
same,solubility,"[3]; acetonitrile, organic solvent or mixture",33 to 100 mg/mL
same,solubility,[3]; [6],0.1 to 1 mg/mL
same,solubility,[3]; [7],0.1 to 1 mg/mL
same,solubility,[3]; [8],0.1 to 1 mg/mL
same,solubility,[3]; [9],0.1 to 1 mg/mL
same,solubility,[3]; [10],0.1 to 1 mg/mL
same,solubility,[3]; [11],0.1 to 1 mg/mL
same,solubility,[3]; [12],0.1 to 1 mg/mL
same,solubility,[3]; [13],0.1 to 1 mg/mL
same,solubility,[3]; [14],0.1 to 1 mg/mL
same,solubility,[3]; [15],0.1 to 1 mg/mL
same,solubility,"[3]; deionized water, water",0.1 to 1 mg/mL
same,solubility,"[3]; ethanol, organic solvent or mixture",33 to 100 mg/mL
same,solubility,"[3]; methanol, organic solvent or mixture",100 to 1000 mg/mL
same,"apparent solubility, USP <1236> term","[3]; other solvents (water, pH 1.2 to 12.0 buffers)",very slightly soluble
same,solubility,[3]; [16],0.1 to 1 mg/mL
same,solubility,[3]; [17],0.1 to 1 mg/mL
same,solubility,[3]; [18],0.1 to 1 mg/mL
same,Tmax,[4],2 h
same,Total Impurity,"[5]; pH 1.2 buffer, 20 ± 2 °C/60 ± 5% RH, 3 Days",0.08%
same,Total Impurity,"[5]; pH 1.2 buffer, 20 ± 2 °C/60 ± 5% RH, 7 Days",0.12%
same,Total Impurity,"[5]; pH 1.2 buffer, 40 ± 2 °C/75 ± 5% RH, 3 Days",0.11%
same,Total Impurity,"[5]; pH 1.2 buffer, 40 ± 2 °C/75 ± 5% RH, 7 Days",0.73%
same,Total Impurity,"[5]; pH 1.2 buffer, Initial",0.06%
same,Total Impurity,"[5]; pH 2.0 buffer, 20 ± 2 °C/60 ± 5% RH, 3 Days",0.00%
same,Total Impurity,"[5]; pH 2.0 buffer, 20 ± 2 °C/60 ± 5% RH, 7 Days",0.00%
same,Total Impurity,"[5]; pH 2.0 buffer, 40 ± 2 °C/75 ± 5% RH, 3 Days",0.02%
same,Total Impurity,"[5]; pH 2.0 buffer, 40 ± 2 °C/75 ± 5% RH, 7 Days",1.03%
same,Total Impurity,"[5]; pH 2.0 buffer, Initial",0.00%
same,Total Impurity,"[5]; pH 3.0 buffer, 20 ± 2 °C/60 ± 5% RH, 3 Days",1.30%
same,Total Impurity,"[5]; pH 3.0 buffer, 20 ± 2 °C/60 ± 5% RH, 7 Days",1.99%
same,Total Impurity,"[5]; pH 3.0 buffer, 40 ± 2 °C/75 ± 5% RH, 3 Days",7.29%
same,Total Impurity,"[5]; pH 3.0 buffer, 40 ± 2 °C/75 ± 5% RH, 7 Days",14.76%
same,Total Impurity,"[5]; pH 3.0 buffer, Initial",0.06%
same,Total Impurity,"[5]; pH 4.0 buffer, 20 ± 2 °C/60 ± 5% RH, 3 Days",0.00%
same,Total Impurity,"[5]; pH 4.0 buffer, 20 ± 2 °C/60 ± 5% RH, 7 Days",0.01%
same,Total Impurity,"[5]; pH 4.0 buffer, 40 ± 2 °C/75 ± 5% RH, 3 Days",0.04%
same,Total Impurity,"[5]; pH 4.0 buffer, 40 ± 2 °C/75 ± 5% RH, 7 Days",0.12%
same,Total Impurity,"[5]; pH 4.0 buffer, Initial",0.00%
same,Total Impurity,"[5]; pH 5.0 buffer, 20 ± 2 °C/60 ± 5% RH, 3 Days",0.16%
same,Total Impurity,"[5]; pH 5.0 buffer, 20 ± 2 °C/60 ± 5% RH, 7 Days",0.26%
same,Total Impurity,"[5]; pH 5.0 buffer, 40 ± 2 °C/75 ± 5% RH, 7 Days",4.48%
same,Total Impurity,"[5]; pH 5.0 buffer, Initial",0.00%
same,Total Impurity,"[5]; pH 6.0 buffer, 20 ± 2 °C/60 ± 5% RH, 3 Days",0.00%
same,Total Impurity,"[5]; pH 6.0 buffer, 20 ± 2 °C/60 ± 5% RH, 7 Days",0.04%
same,Total Impurity,"[5]; pH 6.0 buffer, 40 ± 2 °C/75 ± 5% RH, 3 Days",0.15%
same,Total Impurity,"[5]; pH 6.0 buffer, 40 ± 2 °C/75 ± 5% RH, 7 Days",0.28%
same,Total Impurity,"[5]; pH 6.0 buffer, Initial",0.00%
same,Total Impurity,"[5]; pH 6.8 buffer, 20 ± 2 °C/60 ± 5% RH, 3 Days",0.01%
same,Total Impurity,"[5]; pH 6.8 buffer, 20 ± 2 °C/60 ± 5% RH, 7 Days",0.01%
same,Total Impurity,"[5]; pH 6.8 buffer, 40 ± 2 °C/75 ± 5% RH, 3 Days",0.00%
same,Total Impurity,"[5]; pH 6.8 buffer, 40 ± 2 °C/75 ± 5% RH, 7 Days",0.12%
same,Total Impurity,"[5]; pH 6.8 buffer, Initial",0.00%
same,Total Impurity,"[5]; pH 7.0 buffer, 20 ± 2 °C/60 ± 5% RH, 3 Days",0.02%
same,Total Impurity,"[5]; pH 7.0 buffer, 20 ± 2 °C/60 ± 5% RH, 7 Days",0.04%
same,Total Impurity,"[5]; pH 7.0 buffer, 40 ± 2 °C/75 ± 5% RH, 3 Days",0.7%
same,Total Impurity,"[5]; pH 7.0 buffer, 40 ± 2 °C/75 ± 5% RH, 7 Days",0.69%
same,Total Impurity,"[5]; pH 7.0 buffer, Initial",0.00%
same,Total Impurity,"[5]; pH 8.0 buffer, 20 ± 2 °C/60 ± 5% RH, 3 Days",0.03%
same,Total Impurity,"[5]; pH 8.0 buffer, 20 ± 2 °C/60 ± 5% RH, 7 Days",0.05%
same,Total Impurity,"[5]; pH 8.0 buffer, 40 ± 2 °C/75 ± 5% RH, 3 Days",0.42%
same,Total Impurity,"[5]; pH 8.0 buffer, 40 ± 2 °C/75 ± 5% RH, 7 Days",1.06%
same,Total Impurity,"[5]; pH 8.0 buffer, Initial",0.00%
same,Total Impurity,"[5]; pH 9.0 buffer, 20 ± 2 °C/60 ± 5% RH, 3 Days",1.27%
same,Total Impurity,"[5]; pH 9.0 buffer, 20 ± 2 °C/60 ± 5% RH, 7 Days",1.47%
same,Total Impurity,"[5]; pH 9.0 buffer, 40 ± 2 °C/75 ± 5% RH, 3 Days",3.90%
same,Total Impurity,"[5]; pH 9.0 buffer, 40 ± 2 °C/75 ± 5% RH, 7 Days",6.31%
same,Total Impurity,"[5]; pH 9.0 buffer, Initial",1.02%
same,Total Impurity,"[5]; pH 10.0 buffer, 20 ± 2 °C/60 ± 5% RH, 3 Days",0.46%
same,Total Impurity,"[5]; pH 10.0 buffer, 20 ± 2 °C/60 ± 5% RH, 7 Days",0.66%
same,Total Impurity,"[5]; pH 10.0 buffer, 40 ± 2 °C/75 ± 5% RH, 3 Days",0.30%
same,Total Impurity,"[5]; pH 10.0 buffer, 40 ± 2 °C/75 ± 5% RH, 7 Days",4.78%
same,Total Impurity,"[5]; pH 10.0 buffer, Initial",0.15%
same,Total Impurity,"[5]; pH 11.0 buffer, 20 ± 2 °C/60 ± 5% RH, 3 Days",0.14%
same,Total Impurity,"[5]; pH 11.0 buffer, 20 ± 2 °C/60 ± 5% RH, 7 Days",0.22%
same,Total Impurity,"[5]; pH 11.0 buffer, 40 ± 2 °C/75 ± 5% RH, 3 Days",1.99%
same,Total Impurity,"[5]; pH 11.0 buffer, 40 ± 2 °C/75 ± 5% RH, 7 Days",3.69%
same,Total Impurity,"[5]; pH 11.0 buffer, Initial",0.00%
same,Total Impurity,"[5]; pH 12.0 buffer, 20 ± 2 °C/60 ± 5% RH, 3 Days",0.75%
same,Total Impurity,"[5]; pH 12.0 buffer, 20 ± 2 °C/60 ± 5% RH, 7 Days",1.05%
same,Total Impurity,"[5]; pH 12.0 buffer, 40 ± 2 °C/75 ± 5% RH, 3 Days",2.62%
same,Total Impurity,"[5]; pH 12.0 buffer, 40 ± 2 °C/75 ± 5% RH, 7 Days",4.11%
same,Total Impurity,"[5]; pH 12.0 buffer, Initial",0.00%
